In data set [1] the test system is HEK293 human embryonic kidney cells. As to the kind of experiment: Cell Titer Blue viability (cytotoxicity) assay. Type of data set: cell-based. The protocol:
(§1) A Cell Titer Blue viability assay was performed in the human embryonic kidney cell line HEK293, in order to evaluate the cytotoxicity profile of the newly prepared compounds. […] .
(§2) Fig. 5 HEK293 human embryonic kidney cells were treated at 70% confluence with negative controls (0.1% DMSO, BICAL at 10 μM), positive control (10% DMSO) and compounds at 10 μM concentration for 24 hours. […] Fluorescence was measured at 560/590 nm using a CLARIOstar luminescence plate reader (BMG Labtech). N = 4, n = 6 for controls, n = 3 for drugs. […]
(§3) for calculation of the geometric mean value. […]
(§4) of 0.05% Trypsin/EDTA. […] When all cells […]
(§5) chamber counting grid (Immune Systems). […]
(§6) confluence for assay the next day. […]
(§7) drugs at 10 µM concentration.
(§8) 100 µl media. […] Fluorescence was measured
(§9) USA). […] The Dunnett’s multiple […]
(§10) comparison test was used to compare each drug and the positive control to the negative control […]
(§11) Compound R1 X R2 Cell Viability Antiproliferative
(§12) Mean (%)* SEM** Abs. IC50
(§13) Table S2. Cell Viability assay at 10 µM. * Mean % of cell viability relative to control; ** Errors are calculated as standard error of the mean; ***Geometric mean.
In general terms: Alamar Blue is a resazurin reagent that responds to reducing activity.

The test system of the next data set is 22Rv1. Description: 2D monolayer antiproliferative assay (propidium iodide), 22Rv1. The note with it: Homo sapiens, 22Rv1, 96 h, read-out: Absolute IC50 22Rv1.
Data set [2] can be described thus: Cell Titer Blue viability (cytotoxicity) assay. The note with it: human. The format is cell-based, human. The protocol:
as §1, §2, §3, §4, §5, §6, §7, §8, §9, §10, §11, §12, §13

Data set [3] has as its system four human prostate cancer cell lines: LNCaP, 22Rv1, VCaP, DU145. Description: Antiproliferative assay, overall effect in the four cell lines (geometric mean). The format is cell-based. Conditions: Homo sapiens, geometric mean of the four cell lines; read-out: Absolute IC50 Geo. mean. The protocol: PCR based DNA-fingerprinting methodology.
density of 4.000 – 30.000 cells/well.
test compound were added.
concentrations in triplicate.
After an incubation period of
control/background ratio >3.0
The absolute IC50 value reflects the
The calculation was done by a 4
for calculation of the geometric mean value.
of 0.05% Trypsin/EDTA. […] When all cells

Another data set deals with VCaP. Description: 2D monolayer antiproliferative assay (propidium iodide), VCaP. The note with it: Homo sapiens, 96 h, read-out: Absolute IC50 VCaP.
For a further data set, the system named is LNCaP. As to the kind of experiment: 2D monolayer antiproliferative assay (propidium iodide), LNCaP. Conditions: Homo sapiens, LNCaP, 96 h, read-out: Absolute IC50 LNCaP.
The next data set deals with DU-145. Description: 2D monolayer antiproliferative assay (propidium iodide), DU-145. The note with it: Homo sapiens, DU-145, 96 h, read-out: Absolute IC50 DU-145.

Method for DU-145: All new compounds along with the two standards were tested for their ability to inhibit survival and/or cell proliferation in four human prostate cancer cell lines: LNCaP, 22Rv1, VCaP, androgen-sensitive cell lines, and DU145, a non hormone-sensitive cell line.
Compound Handling: Stock solutions for all inhibitors were prepared in DMSO at a
were well soluble at this concentration in DMSO and precipitation was not observed for any
compound dissolved in 100% DMSO. Aliquots of the stock solution were thawed on the day
of use and stored at room temperature prior to and during treatment. The subsequent dilutions
were done with complete RPMI1640 cell culture medium. The DMSO stock solution was first
Starting with this solution, serial dilutions in
half-log steps with cell culture medium were done using an intermediate dilution plate. Finally,
10 µl taken from the intermediate dilution plate were transferred to 140 µl / well of the cell
culture plate. Thus, at the highest test concentration the DMSO stock was diluted 1:330,
corresponding to a maximum DMSO concentration of 0.3 % v/v in the assay. Solubility of the
diluted compounds in the assay was monitored under the microscope by visual inspection of
the treated cell lines after the 4 days incubation. Precipitation as observed by crystalline
Tumor Cell lines: The cell line panel used for assessing the novel inhibitors comprised four
cell lines derived from human prostate cancers.
6-7 Cell lines were routinely passaged once or twice weekly and maintained in culture for up to 20 passages. All cells were grown at 37°C in
glutamine, #FG1385, Biochrom, Berlin, Germany) supplemented with 10% (v/v) fetal calf serum (Sigma, Taufkirchen, Germany) and 0.1 mg/mL gentamicin (Life Technologies,
Cell Proliferation Assay: A modified propidium iodide (PI) based monolayer assay was used
exponential phase cultures, counted and plated in 96-well flat-bottom micro titer plates at a cell density of 4.000 – 30.000 cells/well. After a 24 h recovery period to allow the cells to resume exponential growth, 10 µl of culture medium (six control wells/plate) or culture medium with test compound were added. The compounds were applied in half-log increments at 10 concentrations in triplicate. After a total treatment period of 96 h, cells were washed with 200 µl PBS to remove dead cells and debris. Then, 200 µl of a solution containing 7 µg/ml propidium iodide (PI) and 0.1% (v/v) Triton X-100 was added. After an incubation period of 1-2 hours at room temperature, fluorescence (FU) was measured using the EnSpire Multimode Plate Reader (excitation λ= 530 nm, emission λ= 620 nm) to quantify the amount of attached
For calculation of mean IC50 values the geometric mean was used.
Data Evaluation: An assay was considered fully evaluable if the following quality control
- Z’-factor calculated within the assay plate ≥0.59
- fluorescence intensity of >500 U from the untreated control wells, equivalent to a
- coefficient of variation in the growth control wells ≤30
Compound effects were expressed in terms of the percentage of the fluorescence signal, obtained by comparison of the mean signal in the treated wells with the mean signal of the untreated controls (expressed by the test-versus-control value, T/C-value [%]):

As to `C[S+](C)[O-]` [10% DMSO], the “Cell Viability Mean (%)” value in data set [1] (10 µM) is listed as 1.45%.
In general, IC50 refers to the point on the concentration scale where inhibition reaches its midpoint. Broadly, the viability is a read-out of living cells in per cent, often relative to untreated cells. Consider `O=C(Nc1ccc(S(F)(F)(F)(F)F)cc1)c1ccc(S(=O)(=O)c2ccc(O)cc2)cc1` [Compound 13e, 4-((4-Hydroxyphenyl)sulfonyl)-N-(4-(pentafluorothio)phenyl)benzamide], for which the IC50 came to 5.78 µM in the data set with 22Rv1; 5.37 µM in data set [3]; 5.35 µM with VCaP; 2.49 µM with LNCaP; 10.8 µM in the data set on DU-145. In data set [2], this compound showed a viability at 24 h, 10 µM of 38.4%. In data set [1] (human, 24 h, 10 μM), the “reduction of cell viability / cells killed” value is “more than 50%”.
